According to US20130303507A1 (Novartis AG, priority 2011, published 2013):

Molecular target: Cdk9/cyclinT1 (Homo sapiens, UniProt P50750)
Test: Cdk9/cyclinT1 Alpha Screen protocol
Assay type: biochemical
Set-up: Full length wild type Cdk9/cyclin T1 is purchased from Invitrogen; purchased Invitrogen PV4131
Conditions: neutral species; individual determinations; read-out: CDK9_cyclinT1_AS2_IC50
Description: Cdk9/cyclinT1 Alpha Screen Protocol
Full length wild type Cdk9/cyclin T1 is purchased from Invitrogen, cat#PV4131. […] The cdk7tide peptide substrate, biotin-[…] -OH, is a custom synthesis purchased from the Tufts University Core Facility. The final concentration of cdk7tide peptide substrate is 200 nM. […] Phospho-Rpb1 CTD (ser2/5) substrate antibody is purchased from Cell Signaling Technology. The final concentration of antibody is 0.67 ug/ml. The Alpha Screen Protein A detection kit containing donor and acceptor beads is purchased from PerkinElmer Life Sciences. The final concentration of both donor and acceptor beads is 15 ug/ml. Alpha Screen is used for detection. […] The biotinylated-cdk7tide peptide substrate is bound to the streptavidin coated donor bead. The antibody is bound to the protein A coated acceptor bead. The antibody will bind to the phosphorylated form of the biotinylated-cdk7tide peptide substrate, bringing the donor and acceptor beads into close proximity. Laser irradiation of the donor bead at 680 nm generates a flow of short-lived singlet oxygen molecules. When the donor and acceptor beads are in close proximity, the reactive oxygen generated by the irradiation of the donor beads initiates a luminescence/fluorescence cascade in the acceptor beads. This process leads to a highly amplified signal with output in the 530-620 nm range. Assays are carried out in 50 mM Hepes, pH=7.5, 10 mM MgCl2, 0.1% Bovine Serum Albumin, 0.01% Tween-20, 1 mM Dithiothreitol, 2.5% Dimethyl Sulfoxide. Stop and detection steps are combined using 50 mM Hepes, pH=7.5, 18 mM EDTA, 0.1% Bovine Serum Albumin, 0.01% Tween-20.

Cdk9/cyclinT1, sequence (P50750 whole entry): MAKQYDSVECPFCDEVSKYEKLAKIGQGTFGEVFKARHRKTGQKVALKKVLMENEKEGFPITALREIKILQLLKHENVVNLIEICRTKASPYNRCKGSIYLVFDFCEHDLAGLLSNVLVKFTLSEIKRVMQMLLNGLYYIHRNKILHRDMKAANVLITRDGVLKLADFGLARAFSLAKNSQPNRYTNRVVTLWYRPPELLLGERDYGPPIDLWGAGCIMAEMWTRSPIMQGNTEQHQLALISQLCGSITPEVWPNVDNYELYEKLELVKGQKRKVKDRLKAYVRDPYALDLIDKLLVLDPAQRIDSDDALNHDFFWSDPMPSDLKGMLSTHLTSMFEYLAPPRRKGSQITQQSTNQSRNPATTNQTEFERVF
Cdk9/cyclinT1, sequence (O60563 whole entry partner): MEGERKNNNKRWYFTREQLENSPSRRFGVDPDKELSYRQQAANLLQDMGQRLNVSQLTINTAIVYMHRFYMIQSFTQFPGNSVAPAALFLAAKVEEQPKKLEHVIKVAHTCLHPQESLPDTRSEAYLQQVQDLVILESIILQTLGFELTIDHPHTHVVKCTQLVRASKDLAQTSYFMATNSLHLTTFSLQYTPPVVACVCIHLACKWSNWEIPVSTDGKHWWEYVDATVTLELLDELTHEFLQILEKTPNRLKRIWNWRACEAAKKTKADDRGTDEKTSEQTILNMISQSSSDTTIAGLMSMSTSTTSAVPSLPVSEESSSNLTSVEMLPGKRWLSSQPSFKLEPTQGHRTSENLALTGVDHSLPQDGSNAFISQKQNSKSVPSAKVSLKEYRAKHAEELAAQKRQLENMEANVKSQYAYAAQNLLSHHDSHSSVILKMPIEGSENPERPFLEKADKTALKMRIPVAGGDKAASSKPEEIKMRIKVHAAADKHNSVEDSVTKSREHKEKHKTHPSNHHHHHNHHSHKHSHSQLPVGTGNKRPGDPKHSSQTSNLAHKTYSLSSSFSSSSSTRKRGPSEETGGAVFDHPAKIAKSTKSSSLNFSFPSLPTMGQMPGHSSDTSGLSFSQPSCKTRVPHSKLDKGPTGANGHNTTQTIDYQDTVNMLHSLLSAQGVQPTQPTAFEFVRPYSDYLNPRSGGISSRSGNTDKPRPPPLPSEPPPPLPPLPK

Row | IC50 [nM] | SMILES
1 | 1 | [2H]C([2H])([2H])OC[C@H](C)N[C@H]1CC[C@H](Nc2cc(-c3cncc(OCC4(C#N)CCOCC4)n3)c(Cl)cn2)CC1 [Compound 598]
2 | 5.6 | COCC(C)N[C@H]1CC[C@@H](Nc2cc(-c3cccc(NCC4(C#N)CCOCC4)n3)c(Cl)cn2)CC1 (stereo partly drawn) [Compound 603]

Further lines, the compound ahead of its results:

Row | SMILES | IC50 [nM]
3 | N#CC1(CNc2cccc(-c3cc(N[C@H]4CC[C@@H](N5CC6(COC6)C5)CC4)ncc3Cl)n2)CCOCC1 [Compound 547] | 6.15
4 | COCC(C)NC[C@H]1CC[C@H](Nc2cc(-c3cccc(NCC4(C#N)CCOCC4)n3)c(Cl)cn2)CC1 (stereo partly drawn) [Compound 526] | 1.19
5 | N#CC1(COc2cncc(-c3cc(NC4CCCNCC4)ncc3Cl)n2)CCOCC1 (stereo not drawn) [Compound 583] | 11

Test system: neointima formation
Test: not given
Conditions: in rats; cited from earlier work

Row | SMILES | inhibition of neointima formation
6 | COc1ccc(CNc2nc(N(CCO)CCO)nc3c2ncn3C(C)C)cc1 [CVT-313] | greater than 80%
